Measurements reported in patent publication US20240317761A1, “PHARMACEUTICALLY ACCEPTABLE SALT OF MOR RECEPTOR AGONIST, AND POLYMORPH THEREOF AND USE THEREOF” (SHANGHAI HAIYAN PHARMACEUTICAL TECHNOLOGY CO., LTD., priority 2021, published 2024).

Experiments:
[1] = molecular target: T1, OPRM1 (MOR) in PathHunter CHO-K1 OPRM1 β-Arrestin Cell Line (Homo sapiens, UniProt P35372); test: HTRF-cAMP cell assay; format: cell-based
T1 construct: host or cells: CHO-K1 (PathHunter engineered line, lot 13K0402)
Protocol: The cell line used in the following tests was PathHunter® CHO-K1 OPRM1 β-Arrestin Cell Line; origin: DiscoverX, No: 93-0213 C2; lot: 13K0402.
The reagents used, their suppliers, article numbers, and storage temperatures are as follows: • Assay Complete™ Cell Culture Kit 107, DiscoverX, 92-3107G, −20° C.; • AssayComplete™ Thawing Reagent, DiscoverX, 92-4002TR, −20° C.; • AssayComplete™ Cell Detachment Reagent, DiscoverX, 92-0009, −20° C.; • Assay Complete™ Cell Plating Reagent, DiscoverX, 93-0563R2, −20° C.; • PathhunterDetection Kit, DiscoverX, 93-0001, −20° C.; • PBS(1×)0.0067M(PO4), Hyclone, SH30256.01, 4° C.; • DMSO, Sigma, D5879-100 ML, ambient temperature; • NKH477, Sigma, 1603, −20° C.; and • IBMX, Tocris, 15879, −20° C.
(§1) The instruments used, their models and suppliers are as follows: • Countsatr BioMed, IM1200, ALIT; • Microscope, IX51, OLYMPUS; • Centrifuge, 5804, Eppendorf; • Thermostatic Water Bath, DK-S420, ShanghaiShenxian thermostatic equipment factory; • Cell Incubator, 3111, Thermo; • Biological Safety Cabinet, BSC-1300IIA2, AIRTECH; • OptiPlate-384White Opaque, 6007290, Perkin Elmer; • Multimode plate Reader, Victor X5, PerkinElmer; • Culture Plate-384 White Opaque, TC-treated, 6007680, PerkinElmer.
1. Cell passaging steps a to h were repeated until the cells passed to the P8 generation. Cells were counted and resuspended in 2×/1 mM IBMX stimulation buffer to a cell density of 1.2*10^6/ml.
2. 1.2*10^6/ml of cell solution was seeded in a 384-well plate in a volume of 10 μl per well (i.e. 12000 cells per well) by using a multichannel pipettor.
1. Relevant reagents were prepared and the compounds were prepared according to the drug dilution preparation table.
a. […]
g. The plate was read by HTRF.
After 60 minutes of incubation, for all samples, reading plates were detected by homogeneous time-resolved fluorescence method.
The data were exported from the corresponding software in the computer connected with the multi-function plate reader, including two signal values of 665 nm and 620 nm. The ratio is calculated as ratio=665 nm signal value/620 nm signal value×10000. […]

[2] = molecular target: T1, OPRM1 (MOR) in PathHunter CHO-K1 OPRM1 β-Arrestin Cell Line; test: β-Arrestin cell assay; format: cell-based
Protocol: The cell line used in the following tests was PathHunter® CHO-K1 OPRM1 β-Arrestin Cell Line; origin: DiscoverX, No: 93-0213 C2; lot: 13K0402. […]
as §1, with “PerkinElmer. […]” for “PerkinElmer.”
1. 20 μl of the cell suspension was pipetted using a pipette and the number of the cells was measured using a cell counter. […]
3. At the end of incubation, the plates were read using a multi-function plate reader.
The data were exported from the corresponding software in the computer connected with the multi-function plate reader, and the data were analyzed by using GraphPad Prism software. […]

[3] = maximum effect relative to morphine = 100%

T1 sequence (P35372 whole entry): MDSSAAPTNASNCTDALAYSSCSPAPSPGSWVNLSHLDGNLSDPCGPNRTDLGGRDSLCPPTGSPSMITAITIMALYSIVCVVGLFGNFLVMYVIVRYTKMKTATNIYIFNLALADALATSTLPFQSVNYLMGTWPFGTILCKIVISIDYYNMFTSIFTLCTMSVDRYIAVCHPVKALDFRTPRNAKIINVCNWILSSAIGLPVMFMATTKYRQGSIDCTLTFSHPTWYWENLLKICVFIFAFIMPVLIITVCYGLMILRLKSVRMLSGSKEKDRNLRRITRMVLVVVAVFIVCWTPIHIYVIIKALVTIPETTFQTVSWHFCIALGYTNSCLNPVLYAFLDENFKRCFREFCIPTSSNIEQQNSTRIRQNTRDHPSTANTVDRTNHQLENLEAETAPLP

| Structure (SMILES) | EC50 [1] [nM] | bias (cAMP versus β-arrestin) ([2]; compared with comparative compound D1, from Tables 5 and 6) | Emax [1, 3] [%] | Emax [2, 3] [%] |
| --- | --- | --- | --- | --- |
| CC(C)[C@@H]1C[C@H](NCC[C@@]2(c3ccccn3)CCOC3(CCCC3)C2)c2ccnn21 [Compound of formula X, (4S,6S)-6-isopropyl-N-(2-((R)-9-(pyridin-2-yl)-6-oxaspiro[4.5]decane-9-yl)ethyl)-5,6-dihydro-4H-pyrrolo[1,2-b]pyrazol-4-amine] | 6 | better bias | – | – |
| CC(C)C1CCC(NCC[C@@]2(c3ccccn3)CCOC3(CCCC3)C2)c2ccnn21 (some centres unmarked) [Comparative compound D1] | 19 | – | 52.6 | 28.3 |
